# Tested on: SK-OV-3 multi-cell spheroids, viability
# Experiment: Anticancer human tumor SK-OV-3 cell line growth inhibition [IpAb];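 as to viability, T/C: viability read after seven days of drug exposure; percent of DMSO vehicle control luminescence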
# Settings: for IC50: curve of first compound; for viability, T/C: stronger effect = lower value
# Procedure, shortened: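 Multi-cell spheroids of 60% tumour cells, 25% HUVEC and 15% MSC in ultra-low-attachment U-bottom wells, treated with agents combined with ipatasertib or abemaciclib. Half-log ranges top out near clinical Cmax, or 10 microM when Cmax is unknown.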
structure (smiles),measurement,setting,value
CC(C)(C)c1cnc(CSc2cnc(NC(=O)C3CCNCC3)s2)o1 + CCN1CCN(Cc2ccc(Nc3ncc(F)c(-c4cc(F)c5nc(C)n(C(C)C)c5c4)n3)nc2)CC1,IC50,second compound 0.01 µM,196 nM
same,IC50,second compound 0.0316 µM,168 nM
same,IC50,second compound 0.1 µM,147 nM
same,IC50,second compound 0.316 µM,129 nM
same,IC50,second compound 1 µM,< 9.49 nM
same,"viability, T/C","second compound 0.01 µM, first compound 0.00949 µM",99.3%
same,"viability, T/C","second compound 0.01 µM, first compound 0.03 µM",109%
same,"viability, T/C","second compound 0.01 µM, first compound 0.0949 µM",104%
same,"viability, T/C","second compound 0.01 µM, first compound 0.3 µM",18.4%
same,"viability, T/C","second compound 0.01 µM, first compound 0.949 µM",0.62%
same,"viability, T/C","second compound 0.01 µM, first compound 3 µM",1.2%
same,"viability, T/C","second compound 0.0316 µM, first compound 0.00949 µM",80.2%
same,"viability, T/C","second compound 0.0316 µM, first compound 0.03 µM",87.8%
same,"viability, T/C","second compound 0.0316 µM, first compound 0.0949 µM",88.3%
same,"viability, T/C","second compound 0.0316 µM, first compound 0.3 µM",14%
same,"viability, T/C","second compound 0.0316 µM, first compound 0.949 µM",1.38%
same,"viability, T/C","second compound 0.0316 µM, first compound 3 µM",1.32%
same,"viability, T/C","second compound 0.1 µM, first compound 0.00949 µM",63%
same,"viability, T/C","second compound 0.1 µM, first compound 0.03 µM",70.4%
same,"viability, T/C","second compound 0.1 µM, first compound 0.0949 µM",80.5%
same,"viability, T/C","second compound 0.1 µM, first compound 0.3 µM",15.7%
same,"viability, T/C","second compound 0.1 µM, first compound 0.949 µM",0.84%
same,"viability, T/C","second compound 0.1 µM, first compound 3 µM",0.9%
same,"viability, T/C","second compound 0.316 µM, first compound 0.00949 µM",60.1%
same,"viability, T/C","second compound 0.316 µM, first compound 0.03 µM",62%
same,"viability, T/C","second compound 0.316 µM, first compound 0.0949 µM",63.4%
same,"viability, T/C","second compound 0.316 µM, first compound 0.3 µM",17.3%
same,"viability, T/C","second compound 0.316 µM, first compound 0.949 µM",0.83%
same,"viability, T/C","second compound 0.316 µM, first compound 3 µM",1.1%
same,"viability, T/C","second compound 1 µM, first compound 0.00949 µM",44.7%
same,"viability, T/C","second compound 1 µM, first compound 0.03 µM",51.1%
same,"viability, T/C","second compound 1 µM, first compound 0.0949 µM",50.1%
same,"viability, T/C","second compound 1 µM, first compound 0.3 µM",12.7%
same,"viability, T/C","second compound 1 µM, first compound 0.949 µM",1.41%
same,"viability, T/C","second compound 1 µM, first compound 3 µM",1.15%
Cn1nccc1Nc1nccc(-c2ccn(C(CO)c3ccc(Cl)c(F)c3)c(=O)c2)n1 (stereo not given) + CCN1CCN(Cc2ccc(Nc3ncc(F)c(-c4cc(F)c5nc(C)n(C(C)C)c5c4)n3)nc2)CC1,IC50,second compound 0.01 µM,7380 nM
same,IC50,second compound 0.0316 µM,6800 nM
same,IC50,second compound 0.1 µM,9030 nM
same,IC50,second compound 0.316 µM,4250 nM
same,IC50,second compound 1 µM,< 31.6 nM
same,"viability, T/C","second compound 0.01 µM, first compound 0.0316 µM",84%
same,"viability, T/C","second compound 0.01 µM, first compound 0.1 µM",98.2%
same,"viability, T/C","second compound 0.01 µM, first compound 0.316 µM",105%
same,"viability, T/C","second compound 0.01 µM, first compound 1 µM",118%
same,"viability, T/C","second compound 0.01 µM, first compound 3.16 µM",91.6%
same,"viability, T/C","second compound 0.01 µM, first compound 10 µM",35.1%
same,"viability, T/C","second compound 0.0316 µM, first compound 0.0316 µM",71.3%
same,"viability, T/C","second compound 0.0316 µM, first compound 0.1 µM",80.8%
same,"viability, T/C","second compound 0.0316 µM, first compound 0.316 µM",84.4%
same,"viability, T/C","second compound 0.0316 µM, first compound 1 µM",102%
same,"viability, T/C","second compound 0.0316 µM, first compound 3.16 µM",74%
same,"viability, T/C","second compound 0.0316 µM, first compound 10 µM",38%
same,"viability, T/C","second compound 0.1 µM, first compound 0.0316 µM",56.2%
same,"viability, T/C","second compound 0.1 µM, first compound 0.1 µM",55.9%
same,"viability, T/C","second compound 0.1 µM, first compound 0.316 µM",63.2%
same,"viability, T/C","second compound 0.1 µM, first compound 1 µM",69.6%
same,"viability, T/C","second compound 0.1 µM, first compound 3.16 µM",60.3%
same,"viability, T/C","second compound 0.1 µM, first compound 10 µM",34.3%
same,"viability, T/C","second compound 0.316 µM, first compound 0.0316 µM",52.1%
same,"viability, T/C","second compound 0.316 µM, first compound 0.1 µM",55.9%
same,"viability, T/C","second compound 0.316 µM, first compound 0.316 µM",61.1%
same,"viability, T/C","second compound 0.316 µM, first compound 1 µM",58.8%
same,"viability, T/C","second compound 0.316 µM, first compound 3.16 µM",54.4%
same,"viability, T/C","second compound 0.316 µM, first compound 10 µM",36%
same,"viability, T/C","second compound 1 µM, first compound 0.0316 µM",40.8%
same,"viability, T/C","second compound 1 µM, first compound 0.1 µM",48.9%
same,"viability, T/C","second compound 1 µM, first compound 0.316 µM",52.2%
same,"viability, T/C","second compound 1 µM, first compound 1 µM",60%
same,"viability, T/C","second compound 1 µM, first compound 3.16 µM",57%
same,"viability, T/C","second compound 1 µM, first compound 10 µM",40.2%
